Source: patent US20160120848A1, “SPECIFIC CANCER TREATMENT REGIMES WITH GANETESPIB” (SYNTA PHARMACEUTICALS CORP., priority 2013, published 2016)

Key:
[1] = test system: advanced solid tumor malignancies; test: Phase I study of ganetespib monotherapy in advanced solid tumor malignancies; format: in vivo, patients; details: ganetespib monotherapy 75 or 150 mg/m^2, Days 1 and 15 of 3-week cycle
Method: A total of 3 (three) cohorts are treated in this study. All patients are hospitalized for the duration of Cycle 1, Days 1 through 21.
In the first cohort (Cohort 1), patients with advanced solid tumor malignancies are treated with 75 mg/m^2 of ganetespib monotherapy. In the second cohort (Cohort 2), patients with advanced solid tumor malignancies are treated with 150 mg/m^2 of ganetespib monotherapy. In the third cohort (Cohort 3), patients with advanced NSCLC are treated with ganetespib (150 mg/m^2) in combination with docetaxel (75 mg/m^2). In the case of intolerability of the third cohort's combination regimen, in a fourth cohort (Cohort 4), patients with advanced NSCLC are treated with ganetespib (150 mg/m^2) in combination with docetaxel (60 mg/m^2).
Each cohort enrolls 3 to 6 patients, depending on toxicity and the inclusion of Cohort 4. A total of 9 patients are enrolled at the recommended combination dose level to better characterize the safety and PK profiles. Each cohort consists of a maximum of 6 evaluable patients, except for the recommended combination dose level, which enrolls a total of 9 patients. Patients who discontinue from the study for reasons other than DLT (dose-limiting toxicity) before completing Cycle 1 are replaced. For all cohorts, patients are hospitalized for the duration of Cycle 1, Days 1 through 21. […]

[2] = test system: ovarian, fallopian tube or peritoneal cancer; test: Phase I/II study of ganetespib in combination with paclitaxel; format: in vivo; details: combination with weekly paclitaxel 80 mg/m^2
Method: A Phase I/II trial of weekly paclitaxel in combination with ganetespib in patients with recurrent, platinum-resistant ovarian, fallopian tube or primary peritoneal cancer is performed. A total of up to 74 patients (up to 18 Phase I patients and up to 56 Phase II patients) with recurrent, platinum-resistant epithelial ovarian, primary peritoneal and fallopian tube carcinoma is enrolled.
Phase I Treatment: Paclitaxel IV given over 1 hour at 80 mg/m^2 days 1, 8 and 15 of a 28-day cycle. Ganetespib IV at a starting dose of 100 mg/m^2 on days 1, 8 and 15 of a 28-day cycle. Ganetespib escalation will follow a modified 3+3 design and escalate from 100 mg/m^2 to 125 mg/m^2 to 150 mg/m^2.
Phase II treatment (after MTD): Phase II TPaclitaxel IV given over 1 hour at 80 mg/m^2 days 1, 8 and 15 of a 28-day cycle. PLUS ganetespib IV at MTD/MED from Phase I on days 1, 8 and 15 of a 28-day cycle.

## CC(C)c1cc(-c2n[nH]c(=O)n2-c2ccc3c(ccn3C)c2)c(O)cc1O [ganetespib]
[1]
  efficacy: efficacious
  safety profile: good safety profile
[2]
  efficacy: efficacious
  safety profile: good safety profile
